Measured values: patent publication US9119805B2, “Therapy and prevention of problem drinking” (THE UNIVERSITY OF SYDNEY, priority 2009, dated 2015)
“Also recorded” adds a separate entry of the source.

Columns and labels:
[1] = test system: alcohol-dependent adults and non-dependent problem drinkers; test: Human Study 3: chronic (4 week) intranasal oxytocin, double-blind placebo-controlled; format: in vivo
Experimental: In a third clinical study in humans, a double-blind, randomized and placebo-controlled study is conducted to determine the effect(s) of intranasal oxytocin therapy on alcohol self-administration in a population of alcohol-dependent adults and in a population of non-dependent problem drinkers. This study determines safety and efficacy of chronic intranasal oxytocin therapy for problem drinking.
At least 30 male and female alcohol-dependent adults and non-dependent problem drinkers are recruited according to the protocols described in the preceding examples hereof, to participate in a trial investigating chronic (4 week) intranasal oxytocin therapy for problem drinking e.g., alcohol-dependent subjects having a current diagnosis of alcohol dependence according to the Diagnostic and Statistical Manual of Mental Disorders, Fourth Edition (DSM-IV) as determined by the Structured Clinical Interview for the DSM-IV (SCID-IV), and non-dependent subjects scoring higher than 8 on AUDIT. Exclusion criteria are as indicated in the preceding examples.
All subjects are tested for baseline SCID-IV, AUDIT, PDQ, 90-day TLFB, DASS-21, PANAS, AUQ, FTND, body mass index (BMI), urine toxicology, bloods for baseline oxytocin and cortisol, liver function testing, heart rate (HR), blood pressure (BP), and ECG, and females are pregnancy-tested and their menstrual cycles determined, as described herein above for Study 2. Neuropsychological evaluations e.g., according to CANTAB are also performed. Additionally, subjects are subjected to attention bias assessment task testing, wherein attention biases to alcohol-related cues are determined using e.g., stroop and dot-probe methodology. Subjects also participate in a reward learning computer task, to assess motivation for their alcohol consumption. Based on their test results, subjects are selected for recruitment in the study.
Recruited subjects are administered placebo or oxytocin intranasally (80 IU per day: 40 IU at 9:00 am and 40 IU at 9:00 pm) over a period of 28 days, following completion of baseline measurements. Subjects are instructed on self-administration procedures and given an initial 14 day supply of medication. Participants attend a mid-point assessment where they will receive the remaining 14 day supply of medication. Drug administration commences on the evening of the day of the clinical and medical interview and ceases on a morning 28 days later, after 56 doses have been administered. Subjects are randomized to oxytocin-receiving or placebo-receiving groups, and the groups are stratified according to gender, age, and drinking behavior.
Recruited subjects are also fitted with an actigraphy watch and complete a sleep diary over the following two week period. The actigraphy watches provide information on sleep/wake cycles and light exposure which play an important role in the psychopathology of alcohol misuse. Participants also complete daily self-tests of drinking behavior (AUQ), mood (PANAS), and report on adverse effects of medication. All participants are contacted weekly beginning after 3 days from the commencement of therapy, to determine compliance and adverse events.
Subjects returning to the BMRI on the afternoon of the 14th day of testing are evaluated i.e., the mid-point assessment. Bloods are taken for analysis of plasma oxytocin and cortisol levels as well as basic pathology including liver function and compared to baseline levels before commencement of drug dosing. A urine toxicology test and alcohol breathalyzer test are also performed, to determine whether subjects have been alcohol-free and drug-free at the time of testing. Subjects are tested according to DASS-21, PANAS, 14-day TLFB, and AUQ, and neuropsychological evaluations e.g., according to CANTAB are performed. Changes in mood, drinking behavior and neuropsychology are evaluated for both groups by comparison with baseline evaluations. […]

Male Wistar rats [2] = test: Emergence test of anxiety after oxytocin pre-treatment (Example 3); format: in vivo, rat
Experimental: (§1) Male Wistar rats (n=48) were obtained from the Animal Resource Centre (ARC), Perth, Western Australia, Australia. The animals were of early adolescent age (i.e., 21 days-old) on arrival and were young adults (i.e., 33 days-old) when oxytocin therapy commenced. The animals were housed and maintained as described in the preceding examples, except that animals were moved to individual housing during chronic exposure to alcohol.
(§2) One-half of the rats (n=24) were administered 10 injections of 1 mg/kg oxytocin (1×I/P injection per day for a total of 10 days). The other half of the rats (n=24) received equivalent injections of placebo/vehicle lacking oxytocin.
(§3) At 7 days following final injection of oxytocin, all rats were tested in an emergence test of anxiety. This 5 min test measures the willingness of rats to leave a small dark hide box and emerge into a brightly lit open field. Rats normally avoid brightly lit and open spaces. Three days later, the animals were tested in social interaction tests which measure the willingness of rats to engage in social behavior during a 10 min session in a darkened arena where they meet an unknown rat that has received the same drug treatment.

Male Wistar rats [3] = test: Social interaction test after oxytocin pre-treatment (Example 3); format: in vivo, rat
Experimental: as §1, §2, §3

[4] = dosing period and follow-up, than before therapy
[5] = intranasal 80 IU per day for 28 days
[6] = 10 x 1 mg/kg I/P, tested 7 days after final injection, versus vehicle
[7] = 10 minute social interaction test, versus vehicle

In the case of CC[C@H](C)[C@@H]1NC(=O)[C@H](Cc2ccc(O)cc2)NC(=O)[C@@H](N)CSSC[C@@H](C(=O)N2CCC[C@H]2C(=O)N[C@@H](CC(C)C)C(=O)NCC(N)=O)NC(=O)[C@H](CC(N)=O)NC(=O)[C@H](CCC(N)=O)NC1=O [oxytocin], the “criteria for problem drinking” value ([1]; at 3-month or 6-month or 12-month follow-up) is reported as “do not meet the criteria for problem drinking”, the heavy drinking days ([1]; dosing period and 3-, 6-, 12-month follow-up, than before therapy) is reported as “fewer heavy drinking days” and the “cognitive biases to alcohol-related cues” value ([1]; dosing period and follow-up) is reported as “reduced cognitive biases”. For the same compound, the “liver function, BMI, and heart function” value ([1]; dosing period and follow-up) was “gradually improved”, the “reward driven motivation to consume alcohol” value ([1]; dosing period and follow-up) was “reduced reward driven motivation” and the abstinent days [1, 4] was “more abstinent days”. The “period of time between heavy drinking days” value [1, 4] was “longer period of time between heavy drinking days”, the alcohol intake [1, 5] was “reduced alcohol intake” and the “short-term memory function and general mood” value [1, 5] was “enhanced short-term memory function and general mood”. For the same compound, the impulsivity ([1]; intranasal 80 IU per day for 28 days, dependent and non-dependent drinkers) was “decreased impulsivity”, the sleep behavior ([1]; throughout the medication dosing period) was “improved sleep behavior” and the “emergence from hide into brightly-lit open field” value (Male Wistar rats [2]; [6]) was “greater likelihood of emergence into the open field; also recorded: emerged more rapidly”. The time hiding (Male Wistar rats [2]; [6]) was “reduced time hiding; also recorded: significantly less time hiding”, the anxiety (Male Wistar rats [2]; relative to control rats) was “reduced anxiety” and the “number of social contacts” value (Male Wistar rats [3]; [7]) was “significantly higher numbers of social contacts; also recorded: increased numbers of social contacts”. The “proximal time (time within one and half body lengths of another rat)” value (Male Wistar rats [3]; [7]) was “significantly higher; also recorded: increased time spent in close proximity” and the social anxiety (Male Wistar rats [3]; test animals after oxytocin therapy) was “decreased social anxiety”.
